The text below walks through data of patent US3974281A, “5-Methyl-1-phenyl-2-(1H)-pyridone compositions and methods of use” (priority 1974, dated 1976).

The test system of series [1] is serum uric acid. Kind of series: Reduction in serum uric acid levels, rats. The series is classed as in vivo, albino male and female rats. As to the method:
normal adult albino male and female rats were given repeated graded doses of AMR-69 and the effect upon serum uric acid levels was determined. There were 10 males and 10 females in each group. The control group received the placebo and the drug was administered orally by admixture to the food. The serum uric acid determination was one of a series performed utilizing the Autotechnicon technique (Lofland et al., 1965 Technicon Symposium) using the Standard SMA-12 procedure (based upon procedure of Bittner et al., AM. J. Clin. Path. 40:423, 1963).
The lowering in serum uric acid levels shown by AMR-69 in tests on rats and on dogs has been noted.

Series [2] deals with serum uric acid. The experiment in a line: Reduction in serum uric acid levels, dogs. The series is classed as in vivo, Beagle type dogs. As to the method: adult male and female Beagle type dogs from a closed colony weighing approximately 10 to 15 kilograms were utilized in the study. There were seven to nine dogs per group. AMR-69 was given orally in capsules to two groups and the third group received placebo capsules. […] The method for determining serum uric acid was performed using the Autotechnicon and the SMR-12 series of analyses. The specific method was based upon the procedure of Lofland et al. The mean serum uric acid values obtained with repeated doses of AMR-69 were as follows: […]

As for `Cc1ccc(=O)n(-c2ccccc2)c1` [AMR-69, 5-methyl-1-phenyl-2-(1H)-pyridone], the “crystal deposition of uric acid or its salts (joints, liver, muscles, kidneys)” value in series [1] (microscopic examination of focal tissues of sacrificed animals) is given as “no evidence of crystal deposition”. Further, in series [1] (rats, 30 and 100 mg./kg.), the “reduction in serum uric acid, significance” value is “statistically significant”. The “serum uric acid, 30 mg./kg.” value in series [1] (rats, repeated oral 30 mg./kg. in food, placebo 1.53 ± 0.20 mg.%, T = 1.92 (P = 0.06)) was 1.05 ± 0.15 mg.%. For the same molecule, the “serum uric acid, 100 mg./kg.” value in series [1] (rats, repeated oral 100 mg./kg. in food, placebo 1.53 ± 0.20 mg.%, T = 3.25 (P< 0.01)) is listed as “.78 ± 0.11 mg %”. For the same molecule, the “reduction in serum uric acid values versus control” value in series [2] (oral capsules (P 0.05)) was “significantly different from the control”. In addition, the “mean serum uric acid, 25 mg/kg” value in series [2] (repeated oral capsules 25 mg/kg, placebo 0.78 ± 0.046 mg.%, T = 2.84 (P<0.02)) was found to be 0.59 ± 0.051 mg.%. Also, the “mean serum uric acid, 75 mg/kg” value in series [2] (repeated oral capsules 75 mg/kg, placebo 0.78 ± 0.046 mg.%, T = 2.40 (P<0.05)) is 0.60 ± 0.049 mg.%.
